Data from patent US6593140B1, “Animal cell culture” (Lonza Group, AG, priority 1992, dated 2003).

How the values were obtained:
[1] = test system: mouse myeloma cell line [GS-NSO]; test: Growth of GS-NSO myeloma cells in protein-free LS1 medium, shake flasks; assay type: cell-based; conditions: 5 μM tropolone, FIG. 5
Protocol: The LS1 medium additionally contained 2-hydroxypropyl-β-cyclodextrin [HPB; 1.2 g/l] complexed with cholesterol and fatty acids [prepared before addition to LS1 by dissolving HPB ([…]) in water and adding to an equal volume of a supplement containing cholesterol and the fatty acids previously dissolved in absolute alcohol, then agitating for 3 hours prior to centrifugation and filtering].

[2] = test system: mouse hybridoma cell line; test: Growth of mouse hybridoma cells in transferrin-free medium with iron chelators, static 24-well culture, 3 days; assay type: cell-based
Protocol: A mouse hybridoma cell line previously subcultured in a serum-free medium containing 1 μg/ml human transferrin was centrifuged and resuspended in transferrin-free medium twice. […] 100×concentrates of the iron chelators to be tested (8-hydroxyquinoline, tropolone, mimosine, maltol or picolinic acid) were prepared in water and filter sterilised. 10 μl of each iron chelator was dispersed into wells of a 24 well costar plate and then 1 ml of cell suspension added. […] Control wells contained either 10 μl water (negative control) or 10 μl of 100 μg/ml human transferrin solution (positive control). Plates were incubated for 3 days in a humidified incubator under a 5% CO2—95% air atmosphere at 36.5° C. under static conditions. After 3 days samples of dispersed cell suspensions from individual wells were analysed using a Coulter Multisizer to determine cell concentration.

animal cells = test: Support of growth in agitated animal cell culture at low iron concentration; assay type: cell-based
[3] = test system: recombinant GS-myeloma cell lines [mouse NS/O]; test: Growth and productivity of recombinant GS-myeloma NS/O cell lines in suspension culture; assay type: cell-based; conditions: for PEAK CELL DENSITY: 0.2 mg/l ferric ammonium citrate with 5 μM tropolone or 1 mg/l transferrin
Description: The efficacy of using tropolone as a transferrin replacement was further investigated using recombinant GS-myeloma cell lines [mouse NS/O] expressing humanised antibodies using the glutamine synthetase (GS) expression system, [Bebbington et al., Bio/Technology, 10, 169-175; European Patent Specification No. 256055].

[4] = test system: mouse hybridoma cell line; conditions: increasing concentrations up to 10 mg/l, transferrin-free medium, 3 days, FIG. 2A
Protocol: A mouse hybridoma cell line, previously subcultured in serum free medium containing human transferrin, was centrifuged and resuspended at 1.5×10^5 cells/ml in either transferrin-free or transferrin-containing serum-free medium. […] The flasks were gassed in 5% CO2—95% air atmosphere, sealed and incubated either static or on an orbital reciprocal shaking platform (120 rpm) at 36.5° C. for 3 days. Samples were then removed and cell concentration was determined by haemocytometry.

[5] = test system: mouse hybridoma cell line; conditions: 5 μM tropolone
Protocol: Flasks were gassed with an atmosphere of 5% CO2—95% air and incubated on an orbital shaking platform (120 rpm) at 36.5° C. for 3 days.
After 3 days samples were withdrawn from flasks and cell concentration determined using a Coulter multisizer.

[6] = 5 μM tropolone vs 1 mg/l transferrin, 0.2 mg/l ferric ammonium citrate, three cell lines

Q: Which “performance as carrier for cholesterol and fatty acids (cell growth)” value ([1]; 1.2 g/l HPB in LS1 medium vs bovine serum albumin) does the source give for “2-hydroxypropyl-β-cyclodextrin [reference compound]” here?
A: an effective replacement for bovine serum albumin

Q: With `CC(=O)CC(C)=O` [acetylacetone, reference compound] as the molecule, how does the “support of cell growth (cell concentration after 3 days)” value ([2]; 100 μM, 0.1 mg/l ferric ammonium citrate, FIG. 1B) read?
A: much less effective

Q: How did the “support of growth in agitated cell culture” value (“support of growth” below) (animal cells) turn out when `O=C(O)CC(O)(CC(=O)O)C(=O)O` [citrate] was run?
A: has failed

Q: How did the “support of growth” value (animal cells) turn out when `O=C(O)[C@H](O)[C@@H](O)[C@H](O)[C@H](O)CO` [gluconate] was run?
A: has failed

Q: `O=C(O)c1ccccn1` [picolinic acid, reference compound] was tested. Which “support of cell growth (cell concentration after 3 days)” value ([2]; 50 μM, 0.1 mg/l ferric ammonium citrate, FIG. 1B) did it give?
A: much less effective

Q: Which “support of cell growth (cell concentration after 3 days)” value ([2]; 3 μM tropolone, 0.36 μM iron (0.1 mg/l ferric ammonium citrate), transferrin-free, FIG. 1A) does the source give for `O=c1cccccc1O` [tropolone, 2-hydroxy-2,4,6-cycloheptatrien-1-one] here?
A: as effective as 1 μg/ml of human transferrin at supporting cell growth

Q: And the “support of cell growth (cell concentration after 3 days)” value ([2]; 5 μM, 0.1 mg/l ferric ammonium citrate, FIG. 1B)?
A: effective at supporting cell growth

Q: What about the “growth rates compared with transferrin medium” value [3, 6] of the same molecule?
A: similar

Q: And the “peak viable cell concentration compared with transferrin medium” value [3, 6]?
A: similar

Q: And the “PEAK CELL DENSITY” value ([3]; Cell line A)?
A: 1.51e+06 mL⁻¹

Q: And the “PEAK CELL DENSITY” value ([3]; Cell line B)?
A: 1.49e+06 mL⁻¹

Q: And the “PEAK CELL DENSITY” value ([3]; Cell line C)?
A: 3.17e+06 mL⁻¹

Q: And the “support of cell growth” value ([1]; 0.2 mg/l ferric ammonium citrate, LS1 medium with HPB or BSA carrier)?
A: able to support the growth of both cultures

Q: What about the “support of growth” value (animal cells) of the same molecule?
A: can support growth

Q: “TRANSFERRIN: human transferrin, natural iron-chelating protein used as positive control” was tested. Which “PEAK CELL DENSITY” value ([3]; Cell line A) did it give?
A: 1.3e+06 mL⁻¹

Q: And the “PEAK CELL DENSITY” value ([3]; Cell line B)?
A: 1.46e+06 mL⁻¹

Q: What about the “PEAK CELL DENSITY” value ([3]; Cell line C) of the same molecule?
A: 2.62e+06 mL⁻¹

Q: For ferric ammonium citrate, which “effect on cell concentration in static culture” value [4] is on record?
A: support increasing cell concentrations

Q: What about the growth yield ([5]; data not shown) of the same molecule?
A: 3.3×10^7 cells/μg ferric ammonium citrate

Q: And the “concentration range giving maximum biomass” value ([5]; shaken 120 rpm, 3 days)?
A: 0.075 to 1 mg/L

Q: What about the “time to death of myeloma cells (failed to thrive)” value ([3]; 0.2 mg/l ferric ammonium citrate in the absence of either tropolone or transferrin) of the same molecule?
A: ≤ 48 h
